Data set [1] relates to Staphylococcus aureus Methicillin/Gentamicin/Tetracycline Resistant (ATCC 33592). The following applies: for Minimum Inhibitory Concentration Staphylococcus aureus ME/GM/TC resistant: in vitro MIC, tested at 100, 30, 10, 3, 1, 0.3 and 0.1 μM in 1% DMSO; for MIC Staphylococcus aureus ME/GM/TC resistant: Minimal Inhibitory Concentration, tested at 100-0.1 in 1% DMSO.
The nature of data set [2]: in vitro. The conditions noted are these: dog, microsomes, pH 7.4.
A short description of data set [3]: in vitro. The following applies: rat, microsomes, pH 7.4.
Data set [4] has as its system Bacillus anthracis Ames. The conditions noted are these: in vitro MIC; listed as 56.
Data set [5] has as its system F. tularensis SCHU-S4. The conditions noted are these: in vitro MIC.
Data set [6] concerns Plague CO92. The following applies: in vitro MIC; listed as 56.
Data set [7] in a line: in vitro. The conditions noted are these: mouse, microsomes, pH 7.4.
Data set [8] has as its system B. melitensis 16M. The conditions noted are these: in vitro MIC.
Data set [9] relates to Mycobacterium ranae (ATCC 110). The conditions noted are these: ATCC 110.
The subject of data set [10] is red blood cells.
The test system of data set [11] is Salmonella typhimurium (ATCC 13311). The following applies: ATCC 13311.
Data set [12] relates to Bacillus subtillis (ATCC 43223). The following applies: ATCC 43223.
Data set [13] can be described thus: in vitro. The following applies: human, microsomes, pH 7.4.
The nature of data set [14]: Metabolic stability, monkey liver microsomes. The following applies: monkey, microsomes, pH 7.4.
Data set [15] can be described thus: Metabolic stability, rat liver microsomes. The following applies: rat, microsomes, pH 7.4.
A short description of data set [16]: Metabolic stability, dog liver microsomes. The conditions noted are these: dog, microsomes, pH 7.4. (Liver microsomes are vesicles of endoplasmic reticulum, rich in cytochrome P450 enzymes.)
Data set [17] can be described thus: Metabolic stability, mouse liver microsomes. The following applies: mouse, microsomes, pH 7.4.
Data set [18] is described as follows: Metabolic stability, human liver microsomes.
A short description of data set [19]: in vitro. The conditions noted are these: monkey, microsomes, pH 7.4.
Data set [20] has as its system mouse cutaneous injury. Put plainly: Mouse skin wound healing model. It counts as in vivo, CD-1 derived male mice. The following applies: topical once daily for 10 days; test substances 100 μg/mouse, CGS-21680 10 μg/mouse. The method, then:
In-vivo assays: Selected compounds were evaluated in an in-vivo mouse skin wound healing model by MDS Pharma Services using the following protocol. Groups of CD-1 derived male mice (n=5) weighting 24±2 g were used. Under hexobarbitol (90 mg/kg, IP) anesthesia, the shoulder and back region of each animal was shaved. A sharp punch (ID 12 mm) was applied to remove the skin including panniculus carnosus and adherent tissues. […] The percent closure of the wound (%) was calculated, and wound half-closure time (CT50) was analyzed by linear regression using Graph-Prism (Graph Software USA). One-way ANOVA followed by Dunnett's test was applied for comparison between the treated and its corresponding vehicle groups at each measurement time point. Differences are considered statistically significant at P<0.05.^41

Converted amounts (≈) assume the structure as drawn. Where a SMILES comes first, the peptide text is derived from it. [ ]: non-standard residue; d: D form. ξ: configuration not given here. 2Thi = N[C@@H](Cc1cccs1)C(=O)O; ξTic = O=C(O)C1Cc2ccccc2CN1; ξOic = O=C(O)C1CC2CCCCC2N1

Take `NCCCC[C@H](NC(=O)[C@H](CCCCN)NC(=O)[C@H](CCCCN)NC(=O)[C@H](CCCCN)NC(=O)C1Cc2ccccc2CN1C(=O)[C@H](CCCCN)NC(=O)CNC(=O)C1CC2CCCCC2N1C(=O)C1Cc2ccccc2CN1C(=O)[C@H](Cc1ccccc1)NC(=O)CNC(=O)C1CC2CCCCC2N1C(=O)C1Cc2ccccc2CN1C(=O)[C@H](CCCCN)NC(=O)CNC(=O)C1CC2CCCCC2N1C(=O)C1Cc2ccccc2CN1C(=O)[C@H](Cc1ccccc1)NC(=O)CNC(=O)[C@@H](N)Cc1cccs1)C(N)=O` (stereo partly drawn) [FKAB-1G-Thi, Thi-GF-Tic-Oic-GK-Tic-Oic-GF-Tic-Oic-GK-Tic-KKKK-CONH2] (H-[2Thi]GF[ξTic][ξOic]GK[ξTic][ξOic]GF[ξTic][ξOic]GK[ξTic]KKKK-NH2): the “Minimum Inhibitory Concentration Staphylococcus aureus ME/GM/TC resistant” value in data set [1] worked out at 10 µM. The share remaining at 0.5 h, 1 μM in data set [2] turned out to be 61%; in data set [3], 61%; in data set [7], 67%. Besides, the figures for the fraction remaining at 0.25 h, 1 μM in [3] and in data set [7] were 107% and 41%, respectively. Besides, the “Minimum Inhibitory Concentration Bacillus anthracis Ames” value in data set [4] is 1.95 µg/mL. Moreover, in data set [5], the “Minimum Inhibitory Concentration F. tularensis SCHU-S4” value worked out at 250 µg/mL. Also, the “Minimum Inhibitory Concentration Plague CO92” value in data set [6] was 15.6 µg/mL. Further, the “Minimum Inhibitory Concentration B. melitensis 16M” value in [8] is over 500 µg/mL. In addition, the “Minimum Inhibitory Concentration Mycobacterium ranae” value in data set [9] amounted to 30 µM.

On to `CC(=O)NCC(=O)N[C@@H](Cc1ccccc1)C(=O)N[C@@H](Cc1ccccc1)C(=O)N1C(C(=O)NCC(=O)N[C@@H](CCCCN)C(=O)N[C@@H](Cc2ccccc2)C(=O)N2C(C(=O)NCC(=O)N[C@@H](Cc3ccccc3)C(=O)N[C@@H](Cc3ccccc3)C(=O)N3C(C(=O)NCC(=O)N[C@@H](CCCCN)C(=O)N[C@@H](Cc4ccccc4)C(=O)N[C@@H](CCCCN)C(=O)N[C@@H](CCCCN)C(=O)N[C@@H](CCCCN)C(=O)N[C@@H](CCCCN)C(N)=O)CC4CCCCC43)CC3CCCCC32)CC2CCCCC21` (some centres unmarked) [FKAB-1Gh, Ac-GF-F-Oic-GK-F-Oic-GF-F-Oic-GK-F-KKKK-CONH2] (Ac-GFF[ξOic]GKF[ξOic]GFF[ξOic]GKFKKKK-NH2), for which, in data set [1], the “MIC Staphylococcus aureus ME/GM/TC resistant” value was determined as 10.00 µM (≈ 23.9 µg/mL) and the “Minimum Inhibitory Concentration Staphylococcus aureus ME/GM/TC resistant” value turned out to be 10 µM. Moreover, in data set [10], the “% hemolysis 100/25 μM (first value)” value was determined as 27.30%/ and the “% hemolysis 100/25 μM (second value)” value is on record as 8.9%. For the same molecule, in [2], the share remaining at 0.5 h, 1 μM amounted to 103% and the share remaining at 1 h, 1 μM turned out to be 60%. The “MIC Salmonella typhimurium” value in data set [11] is 10 µM (≈ 23.9 µg/mL). The share remaining at 1 h, 1 μM in data set [3] amounted to 0%. In addition, the “MIC Bacillus Subtillis” value in data set [12] came to 1.00 µM (≈ 2.39 µg/mL). For the same molecule, in [13], the fraction remaining at 0.25 h, 1 μM came out at 92%. In data set [7], the fraction remaining at 0.25 h, 1 μM is 36%; the amount remaining at 0.5 h, 1 μM turned out to be 71%; the fraction remaining at 1 h, 1 μM was 112%. Moreover, in [9], the “MIC Mycobacterium ranae” value came out at 10.00 µM (≈ 23.9 µg/mL) and the “Minimum Inhibitory Concentration Mycobacterium ranae” value was 10 µM.

In the case of `C[C@]12CC[C@H]3[C@@H](CCC4=CC(=O)CC[C@@]43C)[C@@H]1CC[C@@H]2O` [Testosterone, testosterone, reference compound], the fraction remaining at 0.25 h, 1 μM in data set [14] worked out at 34%; in data set [15], 0%; in [16] it was 85%; in [17], 3%; in data set [18] (human, microsomes, pH 7.4), 77%. The amount remaining at 0.5 h, 1 μM in data set [14] was found to be 11%; in data set [15] it was 0%; in data set [16], 62%; in [17] it was 0%; in data set [18] (human, microsomes, pH 7.4), 53%. The amount remaining at 1 h, 1 μM in data set [14] turned out to be 1%; in [16], 33%; in data set [18] (human, microsomes, pH 7.4) it was 29%.

With `CC(=O)NCC(=O)N[C@@H](Cc1ccccc1)C(=O)N1Cc2ccccc2CC1C(=O)N1C(C(=O)NCC(=O)N[C@@H](CCCCN)C(=O)N2Cc3ccccc3CC2C(=O)N2C(C(=O)NCC(=O)N[C@@H](Cc3ccccc3)C(=O)N3Cc4ccccc4CC3C(=O)N3C(C(=O)NCC(=O)N[C@@H](CCCCN)C(=O)N4Cc5ccccc5CC4C(=O)N[C@@H](CCCCN)C(=O)N[C@@H](CCCCN)C(=O)N[C@@H](CCCCN)C(=O)N[C@@H](CCCCN)C(=O)N[C@@H](CCCCN)C(N)=O)CC4CCCCC43)CC3CCCCC32)CC2CCCCC21` (stereo partly drawn) [FKAB-1Gi, Ac-GF-Tic-Oic-GK-Tic-Oic-GF-Tic-Oic-GK-Tic-KKKKK-CONH2] (Ac-GF[ξTic][ξOic]GK[ξTic][ξOic]GF[ξTic][ξOic]GK[ξTic]KKKKK-NH2), in [1], the “MIC Staphylococcus aureus ME/GM/TC resistant” value came out at 3.00 µM (≈ 7.71 µg/mL) and the “Minimum Inhibitory Concentration Staphylococcus aureus ME/GM/TC resistant” value came out at 3 µM. In data set [10], the “% hemolysis 100/25 μM (first value)” value turned out to be 24.9%/ and the “% hemolysis 100/25 μM (second value)” value is 18.9%. In data set [2], the share remaining at 0.5 h, 1 μM is 63% and the amount remaining at 1 h, 1 μM was 79%. Also, the “MIC Salmonella typhimurium” value in data set [11] came to 10 µM (≈ 25.7 µg/mL). For the same molecule, in data set [3], the amount remaining at 0.25 h, 1 μM was 76%; the amount remaining at 0.5 h, 1 μM is 86%; the fraction remaining at 1 h, 1 μM was determined as 87%. The “MIC Bacillus Subtillis” value in data set [12] is 1.00 µM (≈ 2.57 µg/mL). In [19], the fraction remaining at 0.25 h, 1 μM came to 72%; the fraction remaining at 0.5 h, 1 μM came out at 75%; the share remaining at 1 h, 1 μM is 99%. The fraction remaining at 0.25 h, 1 μM in data set [13] came to 86%. Also, in data set [7], the fraction remaining at 0.25 h, 1 μM amounted to 77%; the amount remaining at 0.5 h, 1 μM came out at 26%; the share remaining at 1 h, 1 μM was 15%. For the same molecule, in data set [9], the “MIC Mycobacterium ranae” value is 3.00 µM (≈ 7.71 µg/mL) and the “Minimum Inhibitory Concentration Mycobacterium ranae” value amounted to 3 µM.

In the case of `CCNC(=O)[C@H]1O[C@@H](n2cnc3c(N)nc(NCCc4ccc(CCC(=O)O)cc4)nc32)[C@H](O)[C@@H]1O` [CGS-21680, 2-p-[2-carboxyethyl]phenethyl-amino-5′-N-ethylcarboxamide-adenosine, reference compound], in [20], the “CT50 (wound half-closure time)” value stood at 5.4 days, the “wound closure Day 3” value is given as 41.1%, the “wound closure Day 5” value turned out to be 54.6% and the “wound closure Day 7” value is recorded as 70.6%. In [20], the “wound closure Day 9” value is on record as 77.6% and the “wound closure Day 11” value was 84.3%.

`CC(=O)CC(c1ccccc1)c1c(O)c2ccccc2oc1=O` (centres unmarked) [Warfarin, warfarin, reference compound]: the fraction remaining at 0.25 h, 1 μM was 109% in [2], 93% in [3], 113% in data set [19] and 86% in data set [7]. Also, the share remaining at 0.5 h, 1 μM in data set [2] was 104%; in [3], 97%; in [19], 109%; in [13] it was 97%; in [7], 111%. Moreover, the amount remaining at 1 h, 1 μM in data set [2] worked out at 94%; in data set [3], 84%; in data set [19], 81%; in data set [13], 97%; in data set [7], 110%. Further, the “% remaining at time T, Human Liver” value in [18] (first human column (T = 15 min, head not given), 1 μM, 0.5 mg/mL microsomes) is 100%.

The values are drawn from US20120197004A1, “NOVEL ANTI-MICROBIAL PEPTIDOMIMETIC COMPOUNDS AND METHODS TO CALCULATE ANTI-MICROBIAL ACTIVITY” (priority 2006, published 2012).
